# Legend:
# [1] = system: TNBC breast cancer cell lines (Hs578T, MDA-MB-231 and MDA-MB-468); test: In vitro motility assay (Boyden chambers); format: cell-based, human
# Procedure: Boyden chambers (Millipore, Molsheim, France) containing 8 μm pore membranes were cultured in 24-well plates. After hydration of the membranes, 10^5 cells were added to the top chamber in low serum (1%)-containing medium. […] Cells were cultured for 24 h at 37° C. in a 5% CO2 humidified incubator. To quantify invasion, cells were fixed with methanol and stained with Giemsa. Stained cells were then removed from the top side of the membrane using a cotton-tipped swab and five representative pictures for each insert were taken of the invading cells from the reverse side. For each experiment, cells were lysed and absorbance at 560 nm was measured.
# PI3K = test: Immunoblot of Akt phosphorylation at Ser473 (hallmark of PI3K activation) in cells exposed to cl-CD95L; format: cell-based, human; details: all tested TNBC cell lines
# Procedure: Cells were lysed for 30 min at 4° C. in lysis buffer [25 mM HEPES (pH 7.4), 1% v/v Triton X-100, 150 mM NaCl, and 2 mM EGTA supplemented with a mix of protease inhibitors (Sigma-Aldrich)]. Protein concentration was determined by the bicinchoninic acid method (PIERCE, Rockford, Ill., USA) according to the manufacturer's protocol. Proteins were separated by SDS-PAGE and transferred to a nitrocellulose membrane (GE Healthcare, Buckinghamshire, England). […] The proteins were visualized with the enhanced chemiluminescence substrate kit (ECL, GE Healthcare).
# NADPHox = test: Flow cytometry analysis of intracellular ROS (H2FDA); format: cell-based, human
# Procedure: Cells were pre-incubated for 30 min at 37° C. with 3 μM of H2FDA resuspended in PBS. The cells were then pre-incubated for an additional 30 min with or without ROS inhibitors before stimulation with 100 ng/ml cl-CD95L for the indicated times. Cells were then washed and analyzed by FACScalibur (BD Bioscience).
# EGFR = EGFR phosphorylation at Tyr845 / CD95-driven EGFR activation; format: cell-based, human; details: MDA-MB-468 cells exposed to cl-CD95L
# Procedure: Cells were lysed for 30 min at 4° C. in lysis buffer [25 mM HEPES (pH 7.4), 1% v/v Triton X-100, 150 mM NaCl, and 2 mM EGTA supplemented with a mix of protease inhibitors (Sigma-Aldrich)]. Protein concentration was determined by the bicinchoninic acid method (PIERCE, Rockford, Ill., USA) according to the manufacturer's protocol. Proteins were separated by SDS-PAGE and transferred to a nitrocellulose membrane (GE Healthcare, Buckinghamshire, England). The membrane was blocked for 15 min with TBST (50 mM Tris, 160 mM NaCl, 0.05% v/v Tween 20, pH 7.8) containing 5% w/v dried skimmed milk (TBSTM) and then incubated overnight with primary antibody at 4° C. in TBSTM. The membrane was intensively washed (TBST) and peroxidase-labeled anti-rabbit or anti-mouse (SouthernBiotech, Birmingham, Ala., US) was added for 45 min. The proteins were visualized with the enhanced chemiluminescence substrate kit (ECL, GE Healthcare).
# CD95 = target: T1, CD95 (Homo sapiens, UniProt P25445); test: MISC immunoprecipitation; format: cell-based; details: MDA-MB-231 and MDA-MB-468 cells stimulated with cl-CD95L
# T1 construct: endogenous in cells; host or cells: MDA-MB-231 and MDA-MB-468 human TNBC breast cancer cells
# T1 sequence (P25445 26-335): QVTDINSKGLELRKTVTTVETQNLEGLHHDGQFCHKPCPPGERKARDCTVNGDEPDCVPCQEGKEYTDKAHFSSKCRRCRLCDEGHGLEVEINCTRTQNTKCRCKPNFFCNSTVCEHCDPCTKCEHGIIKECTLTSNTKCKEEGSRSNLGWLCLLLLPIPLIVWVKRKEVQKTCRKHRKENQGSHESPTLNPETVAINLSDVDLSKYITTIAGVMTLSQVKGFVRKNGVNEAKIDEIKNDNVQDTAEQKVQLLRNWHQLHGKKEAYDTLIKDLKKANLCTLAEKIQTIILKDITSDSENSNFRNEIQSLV
# T1 sequence (P48023 130-281 partner limits assumed): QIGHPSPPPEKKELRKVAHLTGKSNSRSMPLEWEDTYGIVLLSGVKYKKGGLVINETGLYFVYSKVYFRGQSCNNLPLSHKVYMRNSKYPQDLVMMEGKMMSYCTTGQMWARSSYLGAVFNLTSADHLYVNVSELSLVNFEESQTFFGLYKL
# Procedure: Breast cancer cells (20×10^6 cells per condition) were incubated with 100 ng/ml cl-CD95L for the indicated times. The cells were then lysed, 1 μg of Apo1-3 was added to the cell lysate and CD95 was immunoprecipitated by the addition of protein A-sepharose beads (Sigma-Aldrich). For the immunoprecipitation of EGF-R, 1 μg mouse anti-EGF-R (Santa Cruz Biotechnology, CA, USA) was added to the cell lysate and EGF-R was immunoprecipitated with protein A-sepharose beads (Sigma-Aldrich). After extensive washing, the immune complex was resolved by SDS-PAGE.
substance,measurement,setting,value
cl-CD95L: soluble ligand produced by metalloprotease cleavage of the transmembrane CD95L (FasL); produced in transfected 293 cells,motility of TNBC cells stimulated with cl-CD95L,"[1]; Hs578T, MDA-MB-231 and MDA-MB-468, Boyden chambers",dramatic increase in motility
same,"migration of TNBC cells, titration of cl-CD95L",[1]; cl-CD95L at 100 pg/ml,induced migration of TNBC cells
same,phosphorylation of Akt at Ser473 induced by CD95L,PI3K,induced rapid phosphorylation of Akt
same,intracellular ROS in breast cancer cells exposed to cl-CD95L,NADPHox,rapid increase in intracellular ROS
same,phosphorylation of EGFR at Tyr845,EGFR,resulted in phosphorylation of EGFR at Tyr845
same,time of peak of EGFR Tyr845 phosphorylation,EGFR,2 min
same,time of stimulation after which EGFR Tyr845 phosphorylation disappeared,EGFR,10 min
same,MISC formation,CD95,induces MISC formation

# — patent publication US20150377888A1, “Methods for Predicting and Preventing Metastasis in Triple Negative Breast Cancers” (INSERM (INSTITUT NATIONAL DE LA SANTÉ ET DE LA RECHERCHE …, priority 2013, published 2015)
